We go through 4 compounds from patent publication US11458153B2, “Drug delivery composition comprising a self-assembled gelator” (The Brigham and Women's Hospital, Inc., priority 2008, dated 2022).

Data set [1] can be described thus: Gelation ability of polyol amphiphiles in water and organic solvents. The format is physicochemical. Particulars: solvent CHCl3. More on the design: key: G = gel; P = precipitate; S = soluble; I = insoluble. An excerpt:
(§1) Examples of suitable solvents include water, salt water (such as a NaCl solution), different […] such as TRISZMA buffers, and alkaline and acidic solutions. In addition to water-based solutions, the compounds can gel various aromatic and non-aromatic organic solvents, such as benzene, toluene, hexane, and acetonitrile. All the gels obtained in Table 7 were thermally reversible. Above their gelation temperature, the gels dissolved in solvent, but could be returned to their original gel state upon cooling.

Assay in data set [2]: as above
The format is physicochemical. More on the design: key: G = stable gel at room temperature; P = precipitate; Sol = soluble.
Excerpt: as §1

A short description of data set [3]: Dye-encapsulated nanofibers in absence of synovial fluid (PBS). Particulars: DiD-encapsulated fibers in PBS. The format is physicochemical. From the text:
In vitro. […] Fibers were isolated by repetitive centrifugation and washing steps.

The conditions of data set [4]: DiD-encapsulated fibers, synovial fluid, 37° C.
Description: In vitro. […] Fibers were incubated with synovial fluid at 37° C. that was extracted from human arthritic joints (inflamed).
Data set [5] relates to arthritis bearing mouse joints (ankles and knees). Particulars: direct injection into joints, sectioned after 8 days, fluorescence microscopy.
Excerpt: In vivo: DiD encapsulated nanofiber gels (salicin-deconate nanofibers, prepared as above), were directly injected into the arthritis bearing mouse joints (ankles and knees) to examine the retention of nanofibers within the joints. After 8 days, ankles and knees were sectioned and imaged under fluorescence microscopy to examine the presence of nanofibers.
In vivo: DiD encapsulated nanofiber gels were directly injected into the arthritis bearing mouse joints (ankles and knees) to examine the retention of nanofibers within the joints. After 8 days, ankles and knees were sectioned and imaged under fluorescence microscopy to examine the presence of nanofibers.
Data set [6] is described as follows: Gelation studies with Apn-based prodrug gelators in water and organic solvents. Particulars: water. The format is physicochemical. An excerpt:
Gelation Studies with Prodrug-Based Gelators. Gelation abilities of Apn based amphiphilic prodrugs have been investigated thoroughly in a wide range of solvents. For detailed gelation results, see Table 1, below). Typically, the required amount of gelator was placed in a glass vial and with an appropriate solvent. […] The resulting solution was slowly cooled to room temperature and gelation was visually observed. […] Despite of prolonged heating Apn-11-CH3 was not soluble in water. […] In addition, Apn-7-COOH is soluble in basic solutions (pH is more than 8).
All gels were opaque in nature and stable for several weeks.
Preparation of Gels. Typically, gelator (0.1-5 mg) and required solvent (0.1-1 mL) were placed into a 2 mL scintillation vial, which was then sealed with a screw cap. The vial was heated with shaking until the solid was completely dissolved.

The test system of data set [7] is mesenchymal stem cells (MSCs). Put plainly: MSC viability, trypan blue exclusion. The format is cell-based, human. Particulars: 250 μM, 48 hours incubation. Here is the method:
Cytocompatibility. The cytocompatibility of prodrugs generated from small modification of known drugs was investigated. […] To test the cyto compatibility of prodrug-based amphiphiles and bolaamphiphiles, and their effect on cell characteristics such as viability, proliferation, adhesion and cell phenotype, a series of experiments was performed with mesenchymal stem cells (MSCs). To gain more insight into the effect of modification, unmodified drug Apn was used as a control. The viability of control cells and cells treated with Apn, Apn-7-COOH and Apn-8-Apn was examined with trypan blue assay. Use of Mesenchymal stem cells is appropriate given that these systems may be used for localized release likely into connective tissues.
Mesenchymal Stem Cell Culture. Primary human mesenchymal stem cells were maintained in expansion media that consisted of 15% Fetal Bovine Serum (selected for its ability to expand MSCs), 1% (v/v) L-Glutamine, 1% (v/v) Penn-Strep, and α-MEM. All experiments were performed using MSCs at passage number 4-6.
Viability, Adhesion and Proliferation Characteristics. The viability of the cells was examined using trypan blue exclusion. […] The media was then aspirated and the cells were detached with 200 μL of cell dissociated solution (similar quantities of floating cells were observed between the groups, typically 5-10 per well). 300 μL of media was added and the total 500 μL of the cell dispersion was collected in an eppendorf tubes. From this 10 μL of cell dispersion was diluted to 1:1 with 4% trypan blue solution and cells were counted in a hemocytometer to determine the number viable (non-blue) and nonviable (blue) cells. A control for this experiment included cells treated with only phosphate buffer saline (PBS) without an amphiphile. Cell adhesion was quantified by measuring the number of adherent cells on tissue culture surfaces in 96 well plates after incubating with amphiphiles for 12 hours. For proliferation studies, 5000 cells were added to each well of a 96 well plate in 200 μL of MSC cell expansion media, and appropriate amphiphiles were then added and incubated at 37° C. and 5% CO2. Proliferation was quantified by manually tabulating the number of cells within the flask at multiple time points (1, 2, 3, 4, 6 and 8 days) with light microscopy at 10×.

In data set [8] the test system is mesenchymal stem cells (MSCs). Put plainly: MSC adipogenic differentiation, Oil Red O staining. The format is cell-based, human. Particulars: 250 μM, 23 days of induction. Here is the method:
(§2) Unlike typical fibroblast cell lines used for toxicity screening, cultured mesenchymal stem cells are highly sensitive to the presence of soluble factors and can often loose their capacity for multi-lineage differentiation or differentiate into non-desired lineages depending on the culture conditions. To examine the impact of the acetaminophen amphiphilic prodrugs on multi-lineage differentiation of MSCs, cells were treated with adipogenic and osteogenic induction media in presence of amphiphiles followed by respective colorimetric histological staining.
Adipogenic Differentiation. MSCs were seeded in the wells of 24 well plates, and were culture in MSC expansion media until they reach 90% confluence (note: in control samples there was no amphiphile present, whereas in experimental samples 250 μM of Apn-based amphiphile was present). Adipogenic differentiation was induced by culturing the cells for 23 days in adipogenic induction media (from Lonza—MSCs Adipogenic Single Quote kit containing h-Insulin (recombinant), L-Glutamine, Dexamethasone, Indomethacin, IBMX (3-isobuty-1-methyl-xanthine), Pen/Strep) and adipogenic maintenance media (from Lonza—MSCs Adipogenic Single Quote kit containing h-Insulin (recombinant), L-Glutamine, Pen/Strep). […] Adipogenesis was evaluated by Oil Red O staining. Following aspiration of the media, cells were washed once with PBS, and fixed in PBS with 3.7% formaldehyde for 30 min at room temperature. Following fixation cells were rinsed with distilled water for a few minutes, and incubated with isopropanol containing an Oil Red O working solution (prepared by diluting 30 mL of 0.5% isopropanol/Oil Red O solution with 20 mL of distilled water). After 45 minutes culture well were rinsed twice with distilled water and 1 mL of hematoxylin was added to each well for 1 minute followed by aspiration and washing with distilled water. The wells were viewed using an inverted phase contrast microscope.

In data set [9] the test system is mesenchymal stem cells (MSCs). The data set is described as follows: MSC osteogenic differentiation, alkaline phosphatase staining. The format is cell-based, human. Particulars: 250 μM, 23 days. The protocol:
as §2
Osteogenic Differentiation. MSCs were seeded in the wells of 24 well plates, and were culture in MSC expansion media until they reach 90% confluence (note: in control samples there was no amphiphile present, whereas in experimental samples 250 μM of Apn-based amphiphile was present). Osteogenic differentiation was induced by culturing the cells for 23 days in osteogenic induction media (from Lonza—MSCs Osteogenic Single Quote kit) containing dexamethasone, β-glycerophosphate, L-ascorbic acid-2-phosphate, and α-MEM. The media in both groups was changed every 3 days (note: each time while changing the media, 250 μM of Apn-based amphiphiles were added to maintain constant concentration). Osteogenesis was evaluated by cell membrane associated alkaline phosphatase activity. Alkaline phosphatase activity was examined after 23 days by carefully aspirating the media and washing the cells with PBS. The cells were fixed with 3.7% formaldehyde solution for 15 min at room temperature followed by rinsing with distilled water. 0.06% Red Violet LB salt solution in Tris HCl was added with distilled water containing DMF and Naphthol AS MX-PO4. The plates were incubated for 45 minutes at room temperature and then the wells were rinsed 3 times with distilled water and imaged under with inverted phase contrast microscope.

The conditions of data set [10]: cited from earlier work.

“Also recorded” adds a separate entry of the source.

As for `CCCCCCCCCCCC(=O)NC(CO)(CO)CO` [polyol-12], the Gelation ability entry is recorded as “P” in data set [1]; “Sol” in [2] (solvent 1,4-dioxane); “G” in data set [2] (solvent CCl4); “G” in data set [2] (solvent CH3CN); “Sol” in data set [2] (solvent DMSO); “G” in data set [2] (solvent NaCl (40 mM)). Also, the Gelation ability entry in data set [2] (solvent TRIS (50 mM)) is given as “G”; in [2] (solvent acetone), “Sol”; in data set [2] (solvent acidic (pH < 3)), “G”; in data set [2] (solvent basic (pH > 12)), “G”; in data set [2] (solvent benzene), “G”; in data set [2] (solvent cyclohexane), “G”. In addition, the Gelation ability result in [2] (solvent toluene) and in data set [2] (solvent water) was “G” throughout.
For `CCCCCCCCCC(=O)OC[C@H]1O[C@@H](Oc2ccccc2CO)[C@H](O)[C@@H](O)[C@@H]1O` [Salicin-deconate], in data set [3], the “stability of nanofibers in absence of synovial fluid” value is given as “stable (in PBS) for months”. In addition, the “period of slow degradation of fibers by enzymes” value in [4] amounted to 15 days. In [5], the “presence of nanofibers in joints” value is “localized within the joints”.
Regarding `CC(=O)Nc1ccc(O)cc1` [Apn, N-(4-hydroxyphenyl)acetamide, reference compound], the “solubility in water (in words)” value in [6] was “water soluble”. In data set [7], this compound registered a viable cells of 91%. Also, in data set [8], the “adipogenic differentiation, Oil Red O (ORO) staining” value is on record as “robust capacity; also recorded: positive staining”. In addition, the “osteogenic differentiation, alkaline phosphatase (ALP) staining” value in [9] is on record as “robust capacity; also recorded: positive staining”.
For the compound `COc1cc(C=CC(=O)CC(=O)C=Cc2ccc(O)c(OC)c2)ccc1O` [curcumin, 1,7-bis(4-hydroxy-3methoxyphenyl)-1,6-heptadiene-3,5-dione], the “solubility of curcumin in water” value in data set [10] was 0.03 µM.
